Among the test systems are CAKI-1 renal; NCI/ADR-RES ovarian; K-562 leukemia; HOP-92 NSCLC; NCI-H23 lung; NCI-H522 lung; HL-60(TB) leukemia; BT-549 breast; SNB-75 CNS; CCRF-CEM leukemia.
What all share (experiment): inhibition of tumour cell growth, NCI panel, 48 h

Drawing on PubChem BioAssay (NCI), this text covers GI50 and TGI for 8 compounds.

The structures appear in SMILES notation.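 Assay format: 96-well plates, 48-hour exposure. At the GI50, growth is halved. The concentration for full growth arrest is given as TGI.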

Turning to `Nc1ccc(-c2nc3ccccc3[nH]2)c(O)c1`, the GI50 is 27.1 µM in the assay on CAKI-1 renal; 27.8 µM with NCI/ADR-RES ovarian; 31.5 µM in the assay on K-562 leukemia; 5.82 µM in the assay on HOP-92 NSCLC; 20 µM in the assay on NCI-H23 lung; more than 100 µM in the assay with NCI-H522 lung. For the same compound, the GI50 in the assay with HL-60(TB) leukemia was 40.4 µM; with BT-549 breast, 50.9 µM; with SNB-75 CNS, 87.2 µM. The TGI is 58.1 µM with CAKI-1 renal; 81.1 µM in the assay with NCI/ADR-RES ovarian; more than 100 µM with K-562 leukemia; 45.2 µM in the assay on HOP-92 NSCLC; 66.3 µM with NCI-H23 lung; more than 100 µM with NCI-H522 lung. The TGI with HL-60(TB) leukemia, in the assay with BT-549 breast and in the assay on SNB-75 CNS was more than 100 µM in each case.
For the compound `Nc1ccc(N=Nc2ccccc2)c(N)n1`, the GI50 in the assay on NCI/ADR-RES ovarian was 31 µM; in the assay on CCRF-CEM leukemia, 29.4 µM; with K-562 leukemia, 42.7 µM; in the assay with HOP-92 NSCLC it was 14.8 µM; in the assay on NCI-H23 lung, 31.9 µM; with NCI-H522 lung, 22.9 µM. The values for the GI50 in the assay on HL-60(TB) leukemia and with BT-549 breast were 27.5 µM and 16.6 µM, respectively. Also, the TGI with NCI/ADR-RES ovarian was more than 100 µM; in the assay with CCRF-CEM leukemia, more than 100 µM; with K-562 leukemia, more than 100 µM; in the assay with HOP-92 NSCLC it was 65.9 µM; in the assay on NCI-H23 lung, more than 100 µM; with NCI-H522 lung, 86.2 µM. The TGI is more than 100 µM with HL-60(TB) leukemia and 46.1 µM with BT-549 breast.
For the compound `CCN(CC)CCOc1ccc(Nc2ncc3cc(-c4c(Cl)cccc4Cl)c(=O)n(CCOC)c3n2)cc1`, the GI50 was 0.0149 µM in the assay with CAKI-1 renal; 0.415 µM in the assay with NCI/ADR-RES ovarian; 1.11 µM in the assay with CCRF-CEM leukemia; 0.005 µM in the assay on K-562 leukemia; 0.0163 µM with HOP-92 NSCLC; 0.806 µM in the assay with NCI-H23 lung. Moreover, the GI50 in the assay with NCI-H522 lung is 0.134 µM; in the assay with HL-60(TB) leukemia, 0.496 µM; in the assay on BT-549 breast, 0.533 µM; in the assay with SNB-75 CNS, 0.00601 µM. For the same compound, the TGI in the assay on CAKI-1 renal was 0.174 µM; in the assay with NCI/ADR-RES ovarian it was 7.2 µM; in the assay on CCRF-CEM leukemia it was 18.1 µM; with K-562 leukemia, 18.2 µM; with HOP-92 NSCLC, 0.322 µM; with NCI-H23 lung, 3.95 µM. The TGI with NCI-H522 lung is 1.8 µM; in the assay on HL-60(TB) leukemia it was 2.06 µM; in the assay on BT-549 breast, 2.7 µM; in the assay with SNB-75 CNS, 0.0454 µM.
Consider `COc1cc(C(=O)/C=C/c2c(-c3ccc(F)cc3)nc3sc(C)cn23)cc(OC)c1OC`, for which the GI50 in the assay with CAKI-1 renal was 1.78 µM; in the assay with NCI/ADR-RES ovarian, 2.63 µM; in the assay with CCRF-CEM leukemia, 7.19 µM; in the assay with K-562 leukemia it was 5.46 µM; in the assay with HOP-92 NSCLC, 0.155 µM; in the assay on NCI-H23 lung, 2.24 µM. The GI50 with NCI-H522 lung is 2.96 µM; with HL-60(TB) leukemia, 2.87 µM; in the assay on BT-549 breast, 3.75 µM; in the assay on SNB-75 CNS it was 50.1 µM. Besides, the TGI in the assay on CAKI-1 renal was 53.1 µM; in the assay on NCI/ADR-RES ovarian, 15.8 µM; in the assay on CCRF-CEM leukemia, more than 100 µM; in the assay on K-562 leukemia, more than 100 µM; in the assay with HOP-92 NSCLC, 6.32 µM; with NCI-H23 lung, 8.87 µM. The TGI in the assay on NCI-H522 lung, in the assay with HL-60(TB) leukemia, with BT-549 breast and in the assay with SNB-75 CNS was more than 100 µM throughout.
Take `COc1cc2c(c(OC)c1OC)-c1ccc(NNC(=S)N(Cc3cccc(C[N+](Cc4cccc(CNC56CC7CC(CC(C7)C5)C6)c4)(Cc4cccc(CNC56CC7CC(CC(C7)C5)C6)c4)Cc4cccc(CN(C(=S)NNc5ccc6c(cc5=O)[C@@H](NC(C)=O)CCc5cc(OC)c(OC)c(OC)c5-6)C56CC7CC(CC(C7)C5)C6)c4)c3)C34CC5CC(CC(C5)C3)C4)c(=O)cc1[C@@H](NC(C)=O)CC2` (stereo partly specified): the GI50 in the assay with CAKI-1 renal is 3.2 µM; in the assay with NCI/ADR-RES ovarian it was 5.43 µM; with CCRF-CEM leukemia, 0.904 µM; in the assay on HOP-92 NSCLC, 0.897 µM; in the assay on NCI-H23 lung, 1.38 µM; in the assay on NCI-H522 lung, 0.699 µM. The GI50 in the assay with HL-60(TB) leukemia is 0.168 µM; with BT-549 breast, 1.55 µM; in the assay with SNB-75 CNS it was 1.4 µM. Also, the TGI in the assay on CAKI-1 renal was 7.37 µM; in the assay with NCI/ADR-RES ovarian, 12.5 µM; in the assay on CCRF-CEM leukemia, 2.47 µM; with HOP-92 NSCLC, 4.08 µM; with NCI-H23 lung it was 5.33 µM; with NCI-H522 lung it was 1.88 µM. Moreover, the TGI amounted to 1.03 µM in the assay with HL-60(TB) leukemia, 5.89 µM with BT-549 breast and 6.68 µM with SNB-75 CNS.
Take `NC(=O)C(Br)CBr` (stereo unspecified): the GI50 with CAKI-1 renal is 0.472 µM; in the assay with NCI/ADR-RES ovarian, 2.93 µM; in the assay with CCRF-CEM leukemia it was 1.05 µM; in the assay on K-562 leukemia it was 1.38 µM; with HOP-92 NSCLC it was 1.39 µM; in the assay with NCI-H23 lung, 1.74 µM. Further, the GI50 in the assay with HL-60(TB) leukemia was 0.728 µM; with BT-549 breast, 2.39 µM; in the assay on SNB-75 CNS, 5.3 µM. In addition, the TGI in the assay with CAKI-1 renal was 1.16 µM; in the assay on NCI/ADR-RES ovarian, more than 24.1 µM; in the assay with CCRF-CEM leukemia it was 6.93 µM; in the assay with K-562 leukemia, 5.29 µM; in the assay with HOP-92 NSCLC, 3.1 µM; in the assay on NCI-H23 lung it was 3.42 µM. Also, the TGI with HL-60(TB) leukemia is 3.05 µM; in the assay with BT-549 breast, 7.4 µM; with SNB-75 CNS, 19.9 µM.
With `CC1=C(SCc2ccccc2)C(=O)c2ccccc2C1=O`, the TGI was 26.2 µM in the assay on CAKI-1 renal; 61.1 µM in the assay on NCI/ADR-RES ovarian; more than 100 µM in the assay with K-562 leukemia; 19 µM in the assay on HOP-92 NSCLC; 41.8 µM with NCI-H23 lung; more than 100 µM in the assay with HL-60(TB) leukemia. For the same compound, the TGI in the assay with BT-549 breast worked out at 32.1 µM; with SNB-75 CNS, 26.5 µM.
With `C=C1C(=O)O[C@H]2[C@H]1CC/C(CNS(=O)(=O)c1ccc3ccccc3c1)=C\CC[C@@]1(C)O[C@@H]21`, the GI50 was 7.11 µM in the assay on NCI/ADR-RES ovarian; 0.399 µM in the assay with CCRF-CEM leukemia; 0.691 µM in the assay with K-562 leukemia; 1.89 µM in the assay on HOP-92 NSCLC; 2.03 µM in the assay with NCI-H23 lung; 0.444 µM in the assay with NCI-H522 lung. For the same compound, the GI50 in the assay on HL-60(TB) leukemia was 1.63 µM; in the assay on BT-549 breast, 1.76 µM; in the assay on SNB-75 CNS, 10.5 µM. In addition, the TGI with NCI/ADR-RES ovarian was 31.7 µM; in the assay with CCRF-CEM leukemia it was 2.31 µM; in the assay on K-562 leukemia, 4.46 µM; in the assay on HOP-92 NSCLC, 6.34 µM; in the assay on NCI-H23 lung, 6.14 µM; with NCI-H522 lung it was 1.8 µM. Moreover, the TGI with HL-60(TB) leukemia amounted to 3.96 µM; with BT-549 breast it was 4.02 µM; with SNB-75 CNS it was 23.6 µM.
